Active and inactive are the calls of the source. The rule behind the calls is not given here. Where a SMILES comes first, the peptide text is derived from it. The star is where a group is joined. Cbz = O=C(OCc1ccccc1)*

System in one assay: not listed separately
The assay is described as follows: cytotoxicity in THP-1 cells, cytotoxicity control, cell-based (AID 504640). The note with it: THP-1 cell viability, cytotoxicity; at 100 µM (top of the series).
For orientation: viability means a read-out of living cells in per cent, often relative to untreated cells. In the case of `COC(=O)c1ccc(CNc2c(N3CCCC3)c(=O)c2=O)cc1`, the viability is 80.7% (inactive). With `Cc1ccc(NC(=O)C2C3/C=C\CCCCC32)cc1C` (configuration not stated), the viability is 86.3% (inactive).

In the case of `COC(=O)C(C)Oc1ccc(-c2nccc(-c3ccccn3)n2)cc1` (configuration not stated), the viability is 91% (inactive). On the same count and under the same terms, in the case of `CCOC1OC(=O)C(Cl)=C1Nc1ccccc1C` (configuration not stated) it was 81.1% (inactive); in that of `COC(=O)C1CC(=O)N(c2ccc(OCc3ccccc3Cl)cc2)C1` (configuration not stated), 86.1% (inactive); in that of `COC(=O)CCc1nc2c(C#N)c(-c3ccc(Cl)cc3)ccn2n1`, 108% (inactive).

For `CCOC(=O)COc1ccc(/C=C2\NC(=S)N(CC)C2=O)cc1`, the viability is 89.2% (inactive). Consider `COc1cc(NC(=O)C/C(C)=N/NC(=O)c2ccccn2)c(OC)cc1Cl`, for which the viability was 101% (inactive).

With `Cc1nc(SCC(=O)NC2CCCCC2)[nH]c(=O)c1C`, the viability was 106% (inactive). The same measure, in the same setting: under `O=C(CSc1nc2ccccc2c(=O)[nH]1)NC1CCCCC1` stands 92.5% (inactive); under `CCOC(=O)COn1c2c(c3c4no[n+]([O-])c4ccc31)CCCC2`, 92.6% (inactive).

Another assay has as its system THP-1 cell viability, cytotoxicity. The assay is described as above.
Conditions: not given
In general, CC50 refers to the concentration giving 50% cytotoxicity. Regarding `CCOC(=O)CNC(=O)[C@H](Cc1ccccc1)NC(=O)OCc1ccccc1` (Cbz-Phe-Gly-OEt), the CC50 is 43.1 µM.

As for `Cc1ccc2c(c1)c(C1=c3ccccc3=NC1=O)c(O)n2C`, the CC50 is 12.6 µM. Still for that read-out and setting: in the case of `CNc1nc(SCc2ccccc2Cl)nc2c1CCCC2` it was 28 µM.

Take `CCOC(=O)C(C)Sc1ncnc2c1nnn2-c1ccc(F)cc1` (configuration not stated): the CC50 is 38.7 µM. Turning to `Cc1cccc(-c2oc3ccc(-c4ccc5c(c4)OCO5)cc3c2C#Cc2cncn2C)c1`, the CC50 is 35.9 µM.

Regarding `COC(=O)c1cc(=O)n(-c2ccc(F)cc2)c(=Nc2ccc(F)cc2)s1`, the CC50 is 17.6 µM. In the case of `S=c1nc[nH]c2nc[nH]c12`, the CC50 was 0.56 µM. For `CCOC(=O)c1ccc(NC(=O)Cn2ncc(Cl)c(Cl)c2=O)cc1`, the CC50 is 0.88 µM. On the same count and under the same terms, in the case of `O=C(NCC(c1cccs1)N1CCOCC1)c1cc([N+](=O)[O-])cc([N+](=O)[O-])c1` (configuration not stated) it was 58.4 µM; in that of `CCC(C)Nc1ccc(NC(C)CC)cc1` (configuration not stated), 3.31 µM; in that of `Cc1cccc(/C=C/C(=O)c2ccc([N+](=O)[O-])o2)c1`, 6.64 µM. On the same count and under the same terms, under `c1ccc(/N=C2\N=C(Nc3ccccn3)c3ccccc32)nc1` stands < 0.2 µM; under `Cc1cc(Br)ccc1NC(=O)c1cnc(N2CCN(c3ccccn3)CC2)c2ccccc12`, 35.6 µM; under `CC[N+](C)(CC)CCCCOc1ccc2c(c1)C(=O)c1cc(OCCCC[N+](C)(CC)CC)ccc1-2`, 23.1 µM. For `Cc1ccc(C(=O)N/N=C(/CC(=O)c2cccs2)C(F)(F)F)cc1`, the 50% cytotoxic concentration (CC50) is 40.4 µM.

For `CC(C)NC(=O)c1sc(=S)n2c1[nH]c(=O)c1ccc(C(=O)NCCc3ccc(Cl)cc3)cc12`, the CC50 is 52.8 µM. As to `Oc1ccccc1/C=N/Nc1ccnc(SCc2ccccc2)n1`, the 50% cytotoxic concentration (CC50) was 44.9 µM. Consider `COC(=O)C(Nc1nc(SCC(=O)NC2CCCCC2)nc2ccccc12)c1ccccc1` (configuration not stated), for which the CC50 was 50.4 µM. `O=C(/C=C/c1ccccc1)N1CCN(CCN2C(=O)c3cccc4cccc(c34)C2=O)CC1`: the CC50 is 41.2 µM. On the same count and under the same terms, under `Cc1nn2c(NCc3ccccn3)cc(C(C)C)nc2c1-c1ccccc1` stands 2.88 µM; under `Cc1ccc2ccc3ccc(C)nc3c2n1`, < 0.2 µM.
